# From the supplement of paper PMC10307832
# Compound: Cc1cc([C@@H](C)Nc2ccccc2C(=O)O)c2nc(N3CCOCC3)cc(=O)n2c1 [AZD6482] + CC(C)C[C@H](NC(=O)[C@H](Cc1ccccc1)NC(=O)c1cnccn1)B(O)O [Bortezomib] (partner 0.002 µM)
# Assay: relative viability (nuclei count vs DMSO), 5 days (fraction); higher = more cells survive
# Conditions: first compound 0.08 µM
# Summary of the method: (§1)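 One day after seeding in 1536-well plates, lung cancer cell lines were dosed by pin tool. Dosing was either single-drug or a fixed anchor-drug dose plus five library-drug doses (not always all listed) in √10 steps. After 5 days, nuclei were stained in one fix-and-stain step and counted on 4× images, and relative viability is the nuclei count of treated wells over that of vehicle wells, given as the median of duplicate plates.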
row,Cell Line,relative viability
1,NCI-H661,0.71
2,NCI-H1734,0.791
3,NCI-H460,0.957
4,NCI-H2347,0.755
5,SK-LU-1,0.776
6,201T,1.08
7,NCI-H1915,0.861
8,HCC-827,0.991
9,LXF-289,0.972
10,NCI-H23,0.958
11,NCI-H647,0.784
12,CAL-12T,0.843
13,NCI-H1651,0.918
14,EPLC-272H,0.706
15,NCI-H2228,0.754
16,NCI-H1355,1.06
17,NCI-H3122,0.87
18,NCI-H1437,0.466
19,NCI-H1755,0.837
20,NCI-H2023,0.984

# Same assay, conditions: first compound 0.253 µM
row,Cell Line,relative viability
1,COR-L 105,0.893
2,LOU-NH91,0.473
3,NCI-H2405,0.895
4,HOP-62,1.12
5,LU99A,1.16
6,BEN,0.768
7,HARA,1.08
8,HCC-78,0.394
9,NCI-H322M,1.22
10,LCLC-97TM1,0.38
11,NCI-H2009,1.04
12,A-427,1.01
13,NCI-H441,0.481
14,NCI-H661,0.608
15,NCI-H1734,0.893
16,NCI-H460,0.956
17,NCI-H2347,0.681
18,SK-LU-1,0.642
19,201T,1.08
20,NCI-H1915,0.86
21,HCC-827,1.1
22,LXF-289,1
23,NCI-H23,0.861
24,NCI-H1651,0.941
25,NCI-H2228,0.986
26,NCI-H1355,1.06
27,NCI-H3122,0.989
28,NCI-H1437,0.385
29,NCI-H1755,0.962
30,NCI-H2023,0.742

# Same assay, conditions: first compound 0.8 µM
row,Cell Line,relative viability
1,COR-L 105,0.704
2,LOU-NH91,0.519
3,ChaGo-K-1,1.14
4,NCI-H2405,1.06
5,HOP-62,0.752
6,LU99A,1.11
7,BEN,0.596
8,HARA,1.37
9,HCC-78,0.337
10,NCI-H322M,1.13
11,LCLC-97TM1,0.435
12,NCI-H2009,1.04
13,A-427,0.978
14,NCI-H441,0.595
15,NCI-H661,0.723
16,NCI-H1734,0.977
17,NCI-H460,1.17

row,Cell Line,relative viability
1,NCI-H2347,0.873
2,SK-LU-1,1.16
3,201T,1.14
4,NCI-H1915,1.04
5,HCC-827,1.09
6,LXF-289,1.05
7,NCI-H23,1.29
8,NCI-H647,0.777
9,CAL-12T,0.895
10,NCI-H1651,0.905
11,EPLC-272H,0.973
12,NCI-H2228,0.91
13,NCI-H1355,1.16
14,NCI-H3122,1.1
15,NCI-H1437,0.592
16,NCI-H1755,0.434
17,NCI-H2023,0.874

# Same assay, conditions: first compound 2.53 µM
row,Cell Line,relative viability
1,COR-L 105,0.699
2,LOU-NH91,0.475
3,ChaGo-K-1,0.981
4,NCI-H2405,0.73
5,HOP-62,0.939
6,LU99A,0.875
7,BEN,0.641
8,HCC-78,0.203
9,NCI-H322M,0.795
10,NCI-H2009,0.601
11,A-427,0.741
12,NCI-H441,0.357
13,NCI-H1734,0.525
14,NCI-H460,0.685
15,NCI-H2347,0.619
16,SK-LU-1,0.589

row,Cell Line,relative viability
1,201T,0.891
2,NCI-H1915,0.849
3,HCC-827,0.872
4,LXF-289,0.845
5,NCI-H23,0.621
6,NCI-H647,0.582
7,CAL-12T,0.426
8,NCI-H1651,0.809
9,EPLC-272H,0.904
10,NCI-H2228,0.849
11,NCI-H1355,0.874
12,NCI-H3122,0.803
13,NCI-H1437,0.484
14,NCI-H1755,0.639
15,NCI-H2023,0.623

# Same assay, conditions: first compound 8 µM
row,Cell Line,relative viability
1,COR-L 105,0.791
2,LOU-NH91,0.6
3,ChaGo-K-1,1.27
4,NCI-H2405,0.661
5,HOP-62,1.18
6,LU99A,0.823
7,BEN,0.788
8,HARA,1.13
9,HCC-78,0.225
10,NCI-H322M,0.871
11,LCLC-97TM1,0.351
12,NCI-H2009,0.783
13,A-427,0.961
14,NCI-H441,0.449
15,NCI-H661,0.622
16,NCI-H1734,0.556
17,NCI-H460,0.958

row,Cell Line,relative viability
1,NCI-H2347,0.496
2,SK-LU-1,0.46
3,201T,1.11
4,NCI-H1915,1.05
5,HCC-827,0.836
6,LXF-289,0.947
7,NCI-H23,0.861
8,NCI-H647,0.771
9,CAL-12T,0.597
10,NCI-H1651,0.825
11,EPLC-272H,0.834
12,NCI-H2228,1.13
13,NCI-H1355,1.03
14,NCI-H3122,1.09
15,NCI-H1437,0.374
16,NCI-H1755,0.74
17,NCI-H2023,0.679

# Compound: Cc1cc([C@@H](C)Nc2ccccc2C(=O)O)c2nc(N3CCOCC3)cc(=O)n2c1 [AZD6482] + O=C(CCCCCCC(=O)Nc1ccccc1)NO [Vorinostat] (partner 1 µM)
# Assay: as above
# Conditions: first compound 0.08 µM
# Summary of the method: as §1
row,Cell Line,relative viability
1,COR-L 105,0.75
2,LOU-NH91,0.852
3,ChaGo-K-1,0.752
4,NCI-H2405,0.762
5,HOP-62,0.613
6,LU99A,0.473
7,BEN,0.541
8,HARA,0.557
9,HCC-78,0.499
10,NCI-H322M,0.846
11,LCLC-97TM1,0.616
12,NCI-H2009,0.583
13,A-427,0.806
14,NCI-H441,0.854
15,NCI-H661,0.794
16,NCI-H1734,0.804
17,NCI-H460,0.599

row,Cell Line,relative viability
1,NCI-H2347,0.386
2,201T,0.965
3,NCI-H1915,0.432
4,HCC-827,0.801
5,LXF-289,0.814
6,NCI-H23,0.542
7,NCI-H647,0.63
8,CAL-12T,0.715
9,NCI-H1651,0.602
10,EPLC-272H,0.466
11,NCI-H2228,0.482
12,NCI-H1355,0.446
13,NCI-H3122,1.01
14,NCI-H1437,0.955
15,NCI-H1755,0.691
16,NCI-H2023,0.642

# Same assay, conditions: first compound 0.253 µM
row,Cell Line,relative viability
1,COR-L 105,0.663
2,LOU-NH91,0.92
3,ChaGo-K-1,0.7
4,NCI-H2405,0.9
5,HOP-62,0.583
6,LU99A,0.403
7,BEN,0.546
8,HARA,0.574
9,HCC-78,0.389
10,NCI-H322M,0.818
11,LCLC-97TM1,0.703
12,NCI-H2009,0.775
13,A-427,0.843
14,NCI-H441,0.788
15,NCI-H661,0.825
16,NCI-H1734,0.68
17,NCI-H460,0.797

row,Cell Line,relative viability
1,NCI-H2347,0.516
2,SK-LU-1,0.767
3,201T,0.938
4,NCI-H1915,0.467
5,HCC-827,0.795
6,LXF-289,0.741
7,NCI-H23,0.516
8,NCI-H647,0.55
9,CAL-12T,0.666
10,NCI-H1651,0.502
11,EPLC-272H,0.397
12,NCI-H2228,0.302
13,NCI-H1355,0.541
14,NCI-H3122,1.1
15,NCI-H1437,0.921
16,NCI-H1755,0.638
17,NCI-H2023,0.435

# Same assay, conditions: first compound 0.8 µM
row,Cell Line,relative viability
1,COR-L 105,0.907
2,LOU-NH91,0.834
3,ChaGo-K-1,0.744
4,NCI-H2405,1.03
5,HOP-62,0.615
6,LU99A,0.49
7,BEN,0.594
8,HARA,0.465
9,HCC-78,0.395
10,NCI-H322M,0.812
11,LCLC-97TM1,0.565
12,NCI-H2009,0.665
13,A-427,0.87
14,NCI-H441,0.741
15,NCI-H661,0.914
16,NCI-H1734,0.801
17,NCI-H460,0.895

row,Cell Line,relative viability
1,NCI-H2347,0.522
2,SK-LU-1,0.812
3,201T,0.983
4,NCI-H1915,0.538
5,HCC-827,0.912
6,LXF-289,0.87
7,NCI-H23,0.617
8,NCI-H647,0.473
9,CAL-12T,0.737
10,NCI-H1651,0.56
11,EPLC-272H,0.474
12,NCI-H2228,0.798
13,NCI-H1355,0.674
14,NCI-H3122,0.829
15,NCI-H1437,0.997
16,NCI-H1755,0.742
17,NCI-H2023,0.509

# Same assay, conditions: first compound 2.53 µM
row,Cell Line,relative viability
1,COR-L 105,0.649
2,LOU-NH91,0.602
3,ChaGo-K-1,0.708
4,NCI-H2405,0.644
5,HOP-62,0.408
6,LU99A,0.414
7,BEN,0.467
8,HARA,0.357
9,HCC-78,0.298
10,NCI-H322M,0.473
11,NCI-H2009,0.501
12,A-427,0.706
13,NCI-H661,0.736
14,NCI-H1734,0.52
15,NCI-H460,0.344
16,NCI-H2347,0.399

row,Cell Line,relative viability
1,SK-LU-1,0.591
2,201T,0.764
3,NCI-H1915,0.4
4,HCC-827,0.649
5,LXF-289,0.729
6,NCI-H23,0.374
7,NCI-H647,0.41
8,CAL-12T,0.548
9,NCI-H1651,0.464
10,EPLC-272H,0.256
11,NCI-H2228,0.555
12,NCI-H1355,0.447
13,NCI-H3122,0.84
14,NCI-H1437,0.738
15,NCI-H1755,0.495
16,NCI-H2023,0.37

# Same assay, conditions: first compound 8 µM
row,Cell Line,relative viability
1,COR-L 105,0.648
2,LOU-NH91,0.712
3,ChaGo-K-1,0.773
4,NCI-H2405,0.501
5,HOP-62,0.473
6,LU99A,0.409
7,BEN,0.578
8,HARA,0.437
9,HCC-78,0.341
10,NCI-H322M,0.565
11,LCLC-97TM1,0.583
12,NCI-H2009,0.573
13,A-427,0.826
14,NCI-H441,0.782
15,NCI-H661,0.846
16,NCI-H1734,0.582
17,NCI-H460,0.594

row,Cell Line,relative viability
1,NCI-H2347,0.353
2,SK-LU-1,0.517
3,201T,0.862
4,NCI-H1915,0.462
5,HCC-827,0.686
6,LXF-289,0.752
7,NCI-H23,0.407
8,NCI-H647,0.619
9,CAL-12T,0.556
10,NCI-H1651,0.524
11,EPLC-272H,0.252
12,NCI-H2228,0.904
13,NCI-H1355,0.407
14,NCI-H3122,0.796
15,NCI-H1437,0.468
16,NCI-H1755,0.566
17,NCI-H2023,0.455
